pEC50, pIC50: −log10 of the molar value. In brackets after ≈: the same amount, converted by molar mass. Activity calls are given as the source filed them. The calls are words filed in the database; no cut-off is given here.
Legend:
Mus musculus = experiment: In vivo inhibition of GCS activity in po dosed C57BL/6J mouse assessed as reduction in GlcCer level in plasma measured after 6 hrs; assay type: functional, organism-based; conditions: dose 30-300 mg/kg
Cav1.2 = Cav1.2 (Homo sapiens, UniProt Q13936); experiment: Inhibition of human Cav1.2 expressed in HEK293 cells at 30 uM by automated electrophysiology QPatch HT assay; assay type: toxicity, cell-based; conditions: HEK293 cells expressing Cav1.2
[1] = MRT in non-fasted ICR mouse at 5 mg/kg, po by LC-MS/MS analysis; assay type: ADME, organism-based; conditions: in vivo
[2] = MRT in non-fasted ICR mouse at 0.5 mg/kg, iv by LC-MS/MS analysis; assay type: ADME, organism-based; conditions: in vivo
[3] = Selectivity index, ratio of IC50 for mouse GCS to IC50 for human GCS
[4] = Ratio of unbound drug concentration in brain to plasma of non-fasted ICR mouse at 30 mg/kg, po measured after 1 hr by LC-MS/MS analysis; assay type: ADME, organism-based; conditions: read-out: K(p,uu,brain)
[5] = Unbound drug concentration in brain of non-fasted ICR mouse at 30 mg/kg, po measured after 1 hr by LC-MS/MS analysis; assay type: ADME, organism-based; conditions: in vivo
[6] = Volume of distribution at steady state in non-fasted ICR mouse at 0.5 mg/kg, iv by LC-MS/MS analysis; assay type: ADME, organism-based; conditions: in vivo, read-out: Vdss
[7] = Intrinsic clearance in human liver microsomes at 1 uM in presence of NADPH generating system assessed per mg protein by LC-MS/MS analysis; assay type: ADME, Microsome; conditions: read-out: CLH
[8] = Oral bioavailability in non-fasted ICR mouse at 5 mg/kg by LC-MS/MS analysis; assay type: ADME, organism-based; conditions: in vivo
[9] = molecular target: Ceramide glucosyltransferase (Homo sapiens, UniProt Q16739); experiment: Inhibition of GCS in GBA mutant human fibroblasts assessed as reduction in glucosylceramide level incubated for 4 days by RapdiFire-MS/MS analysis; assay type: cell-based; conditions: fibroblast
[10] = Kinetic solubility of the compound in JP2 fluid at pH 6.8 by precipitation method; assay type: physicochemical; conditions: read-out: Kinetic_solubility
CYP2D6 = CYP2D6 (Homo sapiens, UniProt P10635); experiment: Inhibition of CYP2D6 in human liver microsomes using dextromethorphan as substrate at 10 uM in presence of NADPH generating system incubated for 10 mins; assay type: ADME; conditions: probe dextromethorphan
[11] = molecular target: T1, Ceramide glucosyltransferase (Homo sapiens, UniProt Q16739); experiment: Inhibition of human GCS using C8-ceramide and UDP-glucose as substrate incubated for 1 hr by RapidFire mass spectrometry
T1 sequence (Q16739 whole entry): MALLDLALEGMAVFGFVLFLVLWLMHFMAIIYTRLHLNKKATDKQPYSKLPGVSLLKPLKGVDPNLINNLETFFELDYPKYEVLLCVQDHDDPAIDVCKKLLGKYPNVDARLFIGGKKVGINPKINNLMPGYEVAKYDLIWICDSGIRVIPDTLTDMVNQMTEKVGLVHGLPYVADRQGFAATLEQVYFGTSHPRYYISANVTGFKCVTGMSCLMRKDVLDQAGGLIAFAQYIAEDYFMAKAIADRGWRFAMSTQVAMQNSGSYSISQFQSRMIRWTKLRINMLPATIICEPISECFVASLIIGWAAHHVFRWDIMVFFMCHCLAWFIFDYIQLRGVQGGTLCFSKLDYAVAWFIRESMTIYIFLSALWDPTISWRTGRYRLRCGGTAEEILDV

[12] = Plasma clearance in non-fasted ICR mouse at 0.5 mg/kg, iv by LC-MS/MS analysis; assay type: ADME, organism-based
CYP2C8 = molecular target: T2, CYP2C8 (Homo sapiens, UniProt P10632); experiment: Inhibition of CYP2C8 in human liver microsomes using paclitaxel as substrate at 10 uM in presence of NADPH generating system incubated for 10 mins; assay type: ADME; conditions: probe paclitaxel
T2 sequence (P10632 whole entry): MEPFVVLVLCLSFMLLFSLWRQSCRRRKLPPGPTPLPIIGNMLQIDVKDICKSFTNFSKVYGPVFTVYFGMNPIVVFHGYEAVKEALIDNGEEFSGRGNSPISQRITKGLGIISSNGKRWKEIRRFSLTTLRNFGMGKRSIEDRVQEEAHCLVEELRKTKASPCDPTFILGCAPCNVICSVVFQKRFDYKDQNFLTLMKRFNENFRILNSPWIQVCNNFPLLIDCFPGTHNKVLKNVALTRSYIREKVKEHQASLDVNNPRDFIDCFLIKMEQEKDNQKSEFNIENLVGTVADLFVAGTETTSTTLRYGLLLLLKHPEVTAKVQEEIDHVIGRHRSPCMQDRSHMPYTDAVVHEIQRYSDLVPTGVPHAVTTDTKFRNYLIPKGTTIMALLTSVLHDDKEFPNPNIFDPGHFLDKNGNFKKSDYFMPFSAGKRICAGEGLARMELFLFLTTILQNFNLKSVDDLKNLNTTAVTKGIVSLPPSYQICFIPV

[13] = AUC in non-fasted ICR mouse at 5 mg/kg, po by LC-MS/MS analysis; assay type: ADME, organism-based; design: dose 5 mg/kg; conditions: in vivo
CYP1A2 = molecular target: T3, CYP1A2 (Homo sapiens, UniProt P05177); experiment: Inhibition of CYP1A2 in human liver microsomes using tacrine as substrate at 10 uM in presence of NADPH generating system incubated for 10 mins; assay type: ADME; conditions: probe tacrine
T3 sequence (P05177 whole entry): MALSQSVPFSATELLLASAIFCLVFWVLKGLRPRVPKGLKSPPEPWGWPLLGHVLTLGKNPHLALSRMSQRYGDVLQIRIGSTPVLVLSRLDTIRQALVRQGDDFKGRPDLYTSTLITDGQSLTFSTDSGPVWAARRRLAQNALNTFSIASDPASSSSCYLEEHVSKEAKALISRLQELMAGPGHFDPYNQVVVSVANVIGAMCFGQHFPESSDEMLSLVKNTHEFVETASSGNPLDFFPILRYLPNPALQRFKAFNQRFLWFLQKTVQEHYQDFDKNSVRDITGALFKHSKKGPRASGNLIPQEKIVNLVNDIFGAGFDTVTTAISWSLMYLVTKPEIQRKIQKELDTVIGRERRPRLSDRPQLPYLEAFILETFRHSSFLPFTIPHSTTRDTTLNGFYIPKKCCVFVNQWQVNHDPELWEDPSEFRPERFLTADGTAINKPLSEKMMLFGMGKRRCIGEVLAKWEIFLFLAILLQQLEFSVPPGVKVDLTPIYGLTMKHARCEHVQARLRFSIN

[14] = Cardiotoxicity in human iPSC-derived cardiomyocytes assessed as minimum effective concentration required for intracellular calcium transients-mediated proarrhythmic activity by Fluo-4 dye based fluorescence analysis; assay type: toxicity; conditions: cardiac muscle cell
[15] = molecular target: T4, Ceramide glucosyltransferase (Homo sapiens) (UniProt Q16739); experiment: Non-competitive inhibition of GCS (unknown origin) using 1 to 70 uM C8-ceramide and 0.1 to 200 uM UDP-glucose as substrate incubated for 1 hr by RapidFire mass spectrometry
T4 sequence (whole entry): T1 sequence (Q16739 whole entry)

[16] = Toxicity in Sprague-Dawley rat assessed as change in body weight at 30 to 300 mg/kg, po administered once daily for 3 days; assay type: organism-based; conditions: in vivo, 72 h, dose 30-300 mg/kg, time 3 day
CYP3A4 = CYP3A4 (Homo sapiens, UniProt P08684); experiment: Inhibition of CYP3A4 in human liver microsomes using midazolam as substrate at 10 uM in presence of NADPH generating system incubated for 10 mins; assay type: ADME; conditions: probe midazolam
Sequence of CYP3A4 (P08684 whole entry): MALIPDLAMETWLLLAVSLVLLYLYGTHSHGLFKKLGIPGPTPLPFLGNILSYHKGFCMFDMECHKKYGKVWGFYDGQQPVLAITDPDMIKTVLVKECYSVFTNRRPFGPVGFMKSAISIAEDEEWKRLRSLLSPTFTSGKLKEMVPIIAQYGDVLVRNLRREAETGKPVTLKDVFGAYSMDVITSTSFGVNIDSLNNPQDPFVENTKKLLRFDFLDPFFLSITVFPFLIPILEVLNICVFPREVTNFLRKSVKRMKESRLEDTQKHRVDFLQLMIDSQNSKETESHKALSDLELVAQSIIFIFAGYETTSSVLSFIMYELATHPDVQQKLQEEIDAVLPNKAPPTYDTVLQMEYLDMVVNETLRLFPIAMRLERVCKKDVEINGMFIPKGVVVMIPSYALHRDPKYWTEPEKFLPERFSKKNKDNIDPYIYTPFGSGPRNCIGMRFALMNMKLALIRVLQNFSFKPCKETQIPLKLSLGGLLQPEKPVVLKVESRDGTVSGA

Sequence of Cav1.2 (Q13936 whole entry): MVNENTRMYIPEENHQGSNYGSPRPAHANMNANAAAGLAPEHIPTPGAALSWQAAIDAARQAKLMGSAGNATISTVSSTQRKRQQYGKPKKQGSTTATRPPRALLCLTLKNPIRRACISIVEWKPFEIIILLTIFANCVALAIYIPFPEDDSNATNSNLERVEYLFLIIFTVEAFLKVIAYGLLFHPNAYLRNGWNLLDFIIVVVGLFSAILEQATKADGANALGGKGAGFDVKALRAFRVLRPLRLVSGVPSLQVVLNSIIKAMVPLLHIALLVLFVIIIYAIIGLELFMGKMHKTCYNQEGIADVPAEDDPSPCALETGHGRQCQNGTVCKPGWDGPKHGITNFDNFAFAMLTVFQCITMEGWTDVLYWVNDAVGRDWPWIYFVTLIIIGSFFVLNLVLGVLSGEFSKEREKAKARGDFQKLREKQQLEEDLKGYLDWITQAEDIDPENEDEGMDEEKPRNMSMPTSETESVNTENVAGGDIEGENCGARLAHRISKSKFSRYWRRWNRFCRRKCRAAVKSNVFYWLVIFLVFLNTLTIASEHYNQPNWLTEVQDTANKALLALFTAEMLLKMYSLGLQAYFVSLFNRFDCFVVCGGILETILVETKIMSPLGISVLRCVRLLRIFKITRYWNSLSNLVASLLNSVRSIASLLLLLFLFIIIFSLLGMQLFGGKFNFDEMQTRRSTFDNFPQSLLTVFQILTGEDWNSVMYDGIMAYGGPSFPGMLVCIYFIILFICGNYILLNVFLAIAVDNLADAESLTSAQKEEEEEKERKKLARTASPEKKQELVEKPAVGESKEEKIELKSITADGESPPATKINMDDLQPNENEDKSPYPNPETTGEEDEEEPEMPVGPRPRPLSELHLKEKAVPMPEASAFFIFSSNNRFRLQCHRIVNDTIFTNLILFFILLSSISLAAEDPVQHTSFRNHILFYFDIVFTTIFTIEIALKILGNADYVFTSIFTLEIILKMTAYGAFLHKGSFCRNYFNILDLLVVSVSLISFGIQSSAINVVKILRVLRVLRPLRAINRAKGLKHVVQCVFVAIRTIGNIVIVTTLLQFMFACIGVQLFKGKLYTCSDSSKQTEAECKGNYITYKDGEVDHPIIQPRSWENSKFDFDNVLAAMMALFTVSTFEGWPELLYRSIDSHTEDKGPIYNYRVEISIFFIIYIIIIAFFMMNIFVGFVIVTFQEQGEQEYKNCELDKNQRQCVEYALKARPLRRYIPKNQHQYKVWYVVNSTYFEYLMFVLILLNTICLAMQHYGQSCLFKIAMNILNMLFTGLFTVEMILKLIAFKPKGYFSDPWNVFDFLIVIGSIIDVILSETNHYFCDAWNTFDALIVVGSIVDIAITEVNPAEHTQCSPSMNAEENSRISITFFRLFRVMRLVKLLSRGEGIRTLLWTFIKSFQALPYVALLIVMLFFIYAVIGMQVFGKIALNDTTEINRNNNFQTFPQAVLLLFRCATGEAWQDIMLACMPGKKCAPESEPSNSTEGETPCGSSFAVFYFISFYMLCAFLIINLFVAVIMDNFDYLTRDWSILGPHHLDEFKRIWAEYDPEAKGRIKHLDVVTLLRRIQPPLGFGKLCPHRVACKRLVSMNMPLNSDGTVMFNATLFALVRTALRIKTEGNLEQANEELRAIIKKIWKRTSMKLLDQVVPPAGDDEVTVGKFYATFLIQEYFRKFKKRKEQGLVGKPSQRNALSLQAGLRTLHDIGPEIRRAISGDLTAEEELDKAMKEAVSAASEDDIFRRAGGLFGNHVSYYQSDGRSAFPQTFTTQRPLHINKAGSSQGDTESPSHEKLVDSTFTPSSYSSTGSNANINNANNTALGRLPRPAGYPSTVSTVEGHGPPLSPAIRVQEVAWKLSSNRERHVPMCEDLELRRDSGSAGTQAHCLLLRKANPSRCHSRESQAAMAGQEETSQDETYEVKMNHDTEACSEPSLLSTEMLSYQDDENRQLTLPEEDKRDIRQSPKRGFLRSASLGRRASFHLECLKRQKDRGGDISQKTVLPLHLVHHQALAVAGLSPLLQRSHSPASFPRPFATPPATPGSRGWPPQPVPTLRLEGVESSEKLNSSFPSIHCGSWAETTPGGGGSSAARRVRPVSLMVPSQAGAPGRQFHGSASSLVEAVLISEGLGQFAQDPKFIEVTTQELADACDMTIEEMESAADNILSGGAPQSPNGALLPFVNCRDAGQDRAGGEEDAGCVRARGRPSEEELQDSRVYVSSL
Sequence of CYP2D6 (P10635 whole entry): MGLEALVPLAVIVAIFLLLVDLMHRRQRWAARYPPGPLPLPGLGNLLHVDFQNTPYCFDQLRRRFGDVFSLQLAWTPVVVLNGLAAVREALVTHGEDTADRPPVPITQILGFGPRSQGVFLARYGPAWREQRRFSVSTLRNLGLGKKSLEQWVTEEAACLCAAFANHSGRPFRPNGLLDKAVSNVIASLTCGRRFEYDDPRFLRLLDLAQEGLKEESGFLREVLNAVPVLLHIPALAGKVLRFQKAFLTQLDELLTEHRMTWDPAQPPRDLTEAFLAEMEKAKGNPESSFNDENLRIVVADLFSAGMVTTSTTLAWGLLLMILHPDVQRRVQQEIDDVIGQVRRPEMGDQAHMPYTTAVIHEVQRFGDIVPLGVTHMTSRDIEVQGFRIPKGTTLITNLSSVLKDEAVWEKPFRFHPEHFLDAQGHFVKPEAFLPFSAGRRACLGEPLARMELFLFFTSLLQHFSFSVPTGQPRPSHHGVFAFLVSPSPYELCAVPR

## CC(C)(O)c1ccc(NC(=O)c2ccnn(-c3ccccc3OCC(F)(F)F)c2=O)cc1
Mus musculus
  inhibition: Dose-Dependent Effect
Cav1.2
  inhibition at 30 µM: 7.3%
[1]
  MRT: 1.91 h
[2]
  MRT: 1.03 h
[3]
  Ratio IC50: 12.7
[4]
  Kp uu at 1 h: 0.26
[5]
  Drug uptake(free): 0.21 µM
[6]
  Vd: 1.97 L/kg
[7]
  microsomal CLint at 1 µM: 32 µL/min/mg
[8]
  bioavailability: 31%
[9]
  pEC50: 8.36
[10]
  solubility kinetic: 45 µg/mL (≈ 101 µM)
CYP2D6
  inhibition at 10 min, 10 µM: 15.6%
[11]
  pIC50: 7.82
[12]
  clearance: 33.7 mL/min/kg
CYP2C8
  inhibition at 10 min, 10 µM: 34.2%
[13]
  AUC: 829 ng·h/mL
CYP1A2
  inhibition at 10 min, 10 µM: 9.3%
[14]
  MEC: > 10 µM
[15]
  inhibition: Active
[16]
  Activity: Non-Toxic
CYP3A4
  inhibition at 10 min, 10 µM: -4.8%

From ChEMBL document CHEMBL5046282, “Discovery of Brain-Penetrant Glucosylceramide Synthase Inhibitors with a Novel Pharmacophore” (J Med Chem, 2022)
